Source: PubChem BioAssay (NCI)
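96-well plates; 48 h exposure; 5 concentrations. Endpoints by linear interpolation between flanking doses. Not reached: highest tested concentration assigned. The concentration for full growth arrest is given as TGI.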

Tests used:
Assay in all cases: DTP human tumour cell line panel, 48 h
[1] = system: DLD-1 colon
[2] = system: EKVX NSCLC
[3] = system: HOP-92 NSCLC
[4] = system: IGROV1 ovarian
[5] = system: KM12 colon
[6] = system: MOLT-4 leukemia
[7] = system: NCI-H23 lung
[8] = system: SNB-78 CNS
[9] = system: BT-549 breast
[10] = system: MDA-MB-231 breast

SMILES	TGI [1] [µM]	TGI [2] [µM]	TGI [3] [µM]	TGI [4] [µM]	TGI [5] [µM]	TGI [6] [µM]	TGI [7] [µM]	TGI [8] [µM]	TGI [9] [µM]	TGI [10] [µM]
COC(=O)C1Cc2c([nH]c3ccccc23)C=N1 (centres undefined)	> 100	> 100	> 100	> 100	> 100	> 100	> 100	> 100	–	–
Cc1cccc(C)c1NC(=O)C(=O)C1C(=O)N(c2ccccc2)N=C1N (centres undefined)	> 100	> 100	> 100	> 100	> 100	> 100	> 100	> 100	–	–
O=C(CC1C(=O)Nc2ccccc2S1=O)Nc1cccc(Cl)c1 (centres undefined)	> 100	> 87.4	53.8	> 67.1	> 81.5	> 67.2	> 100	> 100	77.6	34.4
COc1nc2c(nc(N)n2C2OC(CO)C(O)C(O)C2O)c(=O)n1C (centres undefined)	> 100	> 100	> 100	> 100	> 100	–	> 100	> 100	–	–
COC(=O)/C(C#N)=C1\N=NNN1CCCc1ccccc1	> 100	> 100	> 100	> 100	> 100	> 100	> 100	> 100	–	–
CC(C)(C)NNc1c([N+](=O)[O-])cnn(-c2ccccc2)c1=O	9.52	25.6	12.3	38.6	24.5	4.91	11.1	58.7	2.7	–
Cc1ccccc1NC(=O)c1[nH]c(=S)nc(N)c1-c1ccccc1C	> 100	> 100	> 100	> 100	> 100	> 100	> 100	> 100	–	–
C[C@H](NC(=O)OC1C2C=CC(O)C1CC2)c1ccccc1 (some centres undefined)	> 100	> 100	–	> 100	> 100	> 100	> 100	> 100	–	–
O=C(OCCOCCOC(=O)c1c[nH]cc1-c1ccccc1)c1c[nH]cc1-c1ccccc1	71.4	69.9	47.8	42.5	44.7	49.1	33.7	68.7	–	–
CCC(=O)O[C@@H]1C2C(OC(C)=O)C34COC(C)([C@@H]3C3C(C[C@]3(C)OC(C)=O)[C@@H](OC(=O)c3ccccc3)C4=O)[C@H](OC(C)=O)[C@@]2(OC(C)=O)C[C@@H]1C (some centres undefined)	> 100	> 100	40.8	40	> 100	> 100	45	73.4	–	–
Cc1ccc(S(=O)(=O)N2CCCCC2CCO)cc1 (centres undefined)	> 100	> 100	> 100	> 100	> 100	> 100	> 100	> 100	–	–
COc1ccccc1NC(=O)C1=C(C)NC(C)=C(C(=O)Nc2ccccc2OC)C1c1ccc(C(C)C)cc1	> 100	> 100	> 100	> 100	> 100	> 100	> 100	–	–	–
CCN(CCCl)CCNc1c2ccccc2nc2ccc(OC)cc12	3.46	3.49	2.43	2.86	3.11	0.341	2.12	4.68	–	–
